Measured values as given in ChEMBL document CHEMBL5370646, “Synthesis and Conformational Analysis of FR901464-Based RNA Splicing Modulators and Their Synergism in Drug-Resistant Cancers” (J Med Chem, 2023).

Experiments:
[1] = test system: HCT-116; test: Growth inhibition of human HCT-116 cells assessed as reduction in cell viability incubated for 72 hrs; format: functional
[2] = test system: SW48; test: Growth inhibition of human SW48 cells assessed as reduction in cell viability incubated for 72 hrs; format: functional
[3] = test system: A549; test: Growth inhibition of human A549 cells assessed as reduction in cell viability incubated for 72 hrs; format: functional
[4] = test system: DMS-53; test: Growth inhibition of human DMS-53 cells assessed as reduction in cell viability incubated for 72 hrs; format: functional
[5] = test system: DMS-114; test: Growth inhibition of human DMS-114 cells assessed as reduction in cell viability incubated for 72 hrs; format: functional
[6] = Growth inhibition of human CCD-841CoN cells assessed as reduction in cell viability incubated for 72 hrs; format: toxicity, cell-based
[7] = Growth inhibition of mouse FL83B cells assessed as reduction in cell viability incubated for 72 hrs; format: toxicity, cell-based
[8] = test system: HCT-116; test: Modulation of RNA splicing in human HCT-116 cells assessed as decrease in SF3B1 phosphorylation at thr313 residue by Western blot analysis; format: functional, cell-based; settings: dose 3-100 nM
[9] = test system: HCT-116; test: Modulation of RNA splicing in human HCT-116 cells assessed as decrease in MCL-1L expression by Western blot analysis; format: functional, cell-based; settings: dose 3-100 nM
[10] = test system: HCT-116; test: Modulation of RNA splicing in human HCT-116 cells assessed as decrease in MCL-1S expression by Western blot analysis; format: functional, cell-based; settings: dose 3-100 nM
[11] = Metabolic stability in CD1 mouse plasma assessed as half life measured after 48 hrs by LC-MS analysis; format: ADME, cell-free
[12] = Metabolic stability in CD1 mouse plasma measured after 48 hrs by LC-MS analysis; format: ADME, cell-free
[13] = Synergistic antiproliferative activity against human Osimertinib-resistant HCC827AR cell assessed as combination index at 2.5 nM incubated for 72 hrs in presence of 0.25 uM osimertinib by WST-1 assay; format: functional
[14] = Synergistic antiproliferative activity against human Osimertinib-resistant HCC827AR cell assessed as combination index at 2.5 nM incubated for 72 hrs in presence of 0.50 uM osimertinib by WST-1 assay; format: functional
[15] = Synergistic antiproliferative activity against human Osimertinib-resistant HCC827AR cell assessed as combination index at 2.5 nM incubated for 72 hrs in presence of 1 uM osimertinib by WST-1 assay; format: functional
[16] = Synergistic antiproliferative activity against human Osimertinib-resistant HCC827AR cell assessed as combination index at 2.5 nM incubated for 72 hrs in presence of 2 uM osimertinib by WST-1 assay; format: functional
[17] = Synergistic antiproliferative activity against human Osimertinib-resistant HCC827AR cell assessed as combination index at 2.5 nM incubated for 72 hrs in presence of 4 uM osimertinib by WST-1 assay; format: functional
[18] = Metabolic stability in CD1 mouse plasma assessed as half life measured after 10 mins by LC-MS analysis; format: ADME, cell-free

Compound	GI50 [1]	GI50 [2]	GI50 [3]	half-life [11]	Stability [12]	GI50 [4]	GI50 [5]	GI50 at 72 h [6]	GI50 at 72 h [7]	Activity [8]	Activity [9]	Activity [10]	CI [13]	CI [14]	CI [15]	CI [16]	CI [17]	half-life [18]
Cc1c(-c2c(-c3ccc(F)o3)sc3ncnc(O[C@H](Cc4ccccc4OCc4ccnn4CC(F)(F)F)C(=O)O)c23)ccc(OCCN2CCN(C)CC2)c1Cl	–	–	–	–	–	–	–	–	–	–	–	–	0.38	0.46	0.55	0.47	0.42	–
CC(=O)O[C@@H](C)/C=C\C(=O)N[C@@H]1C[C@H](C)[C@H](C/C=C(C)/C=C/[C@H]2OC(C)(C)C[C@@]3(CO3)[C@@H]2O)O[C@@H]1C	0.7 nM	0.9 nM	2.7 nM	–	–	0.5 nM	0.4 nM	2 nM	0.9 nM	–	–	–	–	–	–	–	–	1 min

Second part, led by results:

GI50 [1]	GI50 [2]	GI50 [3]	half-life [11]	Stability [12]	Compound	GI50 [4]	GI50 [5]	GI50 at 72 h [6]	GI50 at 72 h [7]	Activity [8]	Activity [9]	Activity [10]	CI [13]	CI [14]	CI [15]	CI [16]	CI [17]	half-life [18]
4100 nM	4600 nM	7500 nM	–	–	COCO[C@@H](C)/C=C\C(=O)N(C)[C@@H]1C[C@H](C)[C@H](C/C=C(C)/C=C/[C@H]2OC(C)(C)C[C@@]3(CO3)[C@@H]2O)O[C@@H]1C	6000 nM	4900 nM	–	–	–	–	–	–	–	–	–	–	–
16000 nM	16000 nM	34000 nM	–	–	COCO[C@@H](C)/C=C\C(=O)N(C)[C@@H]1CC[C@H](C/C=C(C)/C=C/[C@H]2OC(C)(C)C[C@@]3(CO3)[C@@H]2O)O[C@@H]1C	23000 nM	8700 nM	–	–	–	–	–	–	–	–	–	–	–
10.5 nM	10.7 nM	8.6 nM	8 h	Stable	COCO[C@@H](C)/C=C\C(=O)N[C@@H]1CC[C@H](C/C=C(C)/C=C/[C@H]2OC(C)(C)C[C@@]3(CO3)[C@@H]2O)O[C@@H]1C	14.9 nM	10.2 nM	63.2 nM	35.7 nM	Dose-Dependent Effect	Dose-Dependent Effect	Dose-Dependent Effect	–	–	–	–	–	–
